In US20110105323A1, “Calcium Salts of Phosphorous Acid for Increasing the Effect of Fungicides” (BASF SE, priority 2008, published 2011):
Read-outs that look alike come from different tables or passages of the source.

Assays:
Phakopsora pachyrhizi = assay: Example 11: soybean rust on soybeans, greenhouse; assay type: in vivo
Plasmopara viticola [1] = assay: Example 7: downy mildew on grapevines, greenhouse, as example 6; assay type: in vivo
Plasmopara viticola [2] = assay: Example 10: downy mildew on grapevines, greenhouse, protective spray (7 days); assay type: in vivo
[3] = test system: downy mildew on grapevines; assay: Example 13: downy mildew on grapevines, outdoor test with natural infections; assay type: in vivo
Plasmopara viticola [4] = assay: Example 6: downy mildew on grapevines, greenhouse, protective spray (1 day); assay type: in vivo
[5] = test system: downy mildew on grapevines; assay: Example 12: downy mildew on grapevines, outdoor test with natural infections; assay type: in vivo
Plasmopara viticola [6] = assay: Example 9: downy mildew on grapevines, translaminar action; assay type: in vivo
Plasmopara viticola [7] = assay: Example 8: downy mildew on grapevines, bar application pattern; assay type: in vivo
[8] = test system: downy mildew on grapevines; assay: Example 14: downy mildew on grapevines, outdoor test with natural infections; assay type: in vivo
Phytophthora infestans [9] = conditions: in vivo
Phytophthora infestans [10] = conditions: in vivo; remark: listed apart in the source

[Ca+2].[O-]P([O-])O [Ca(H2PO3)2, calcium hydrogenphosphite]
Efficacy W (Phakopsora pachyrhizi; in vivo): 48%
Efficacy W (Plasmopara viticola [1]; in vivo): 3%
Efficacy W (Plasmopara viticola [2]; in vivo): 9%
Efficacy W ([3]; in vivo): 21%
Efficacy W (Plasmopara viticola [4]; in vivo): 3%
Efficacy W ([5]; in vivo): 18%
Efficacy W (Plasmopara viticola [6]; in vivo): 0%
Efficacy W (Plasmopara viticola [7]; in vivo): 0%
Efficacy W ([8]; in vivo): 24%

O=C(Nc1ccccc1-c1ccc(Cl)cc1)c1cccnc1Cl [boscalid]
Efficacy W (Phakopsora pachyrhizi; boscalid 20 ppm, soybean 'Monsoy' leaves sprayed 2 days before inoculation, scored after 10-12 days): 11%

N#Cc1sc2c(=O)c3ccccc3c(=O)c=2sc1C#N [dithianon]
Efficacy W (Phytophthora infestans [9]): 31%
Efficacy W (Plasmopara viticola [1]; dithianon 10 ppm in spray liquor, grapevine leaves sprayed 1 day before inoculation): 62%
Efficacy W ([3]; dithianon 400 ppm, outdoors, natural infections, 7 application dates, spray interval 14-16 days): 48%
Efficacy W ([5]; dithianon 300 ppm, outdoors, natural infections, spray interval 14-16 days, scored 1 day after the 6th application): 85%
Efficacy W (Plasmopara viticola [7]; dithianon 10 ppm, bar application on lower half of upper leaf side 1 day before inoculation, scored on apical half of leaf underside): 6%
Efficacy W ([8]; dithianon 300 ppm, outdoors, natural infections, spray interval 9-11 days, scored 4 days after the 8th application): 56%

CCCCCCCCc1c(CC)nc2ncnn2c1N [fungicide A, 5-ethyl-6-octyl-[1,2,4]triazolo[1,5-a]pyrimidin-7-ylamine]
Efficacy W (Plasmopara viticola [2]; fungicide A 100 ppm, grapevine leaves sprayed 7 days before inoculation): 85%
Efficacy W (Phytophthora infestans [10]): 39%
Efficacy W (Plasmopara viticola [6]; fungicide A 5 ppm, translaminar, applied to upper side of leaf 48 hours prior to inoculation): 1%

COC(=O)N(OC)c1ccccc1COc1ccn(-c2ccc(Cl)cc2)n1 [pyraclostrobin]
Efficacy W (Plasmopara viticola [4]; pyraclostrobin 0.5 ppm in spray liquor, Riesling leaves sprayed 1 day before inoculation): 92%
